Experimental data as given in ChEMBL document CHEMBL1147289, “A new bioactive derivative of avarol from the marine sponge Dysidea avara” (J Nat Prod, 1989).

Assays:
[1] = tested on: Agrobacterium tumefaciens; assay: Antitumor activity against Agrobacterium tumefaciens-induced crown gall tumors in potato tubers by potato disk assay; assay type: functional
[2] = tested on: Artemia; assay: Toxicity in brine shrimp; assay type: organism-based; settings: in vivo

SMILES	inhibition (INH) [1] [%]	LC50 [2] [ppm]
CC1=CCC[C@H]2[C@](C)(Cc3cc(O)ccc3O)[C@@H](C)CC[C@]12C [AVAROL]	64	0.18
CC(=O)O.CC1=CCCC2[C@](C)(Cc3cc(O)ccc3O)[C@@H](C)CC[C@]12C (stereo partly specified) [AVAROL MONOACETATE]	59	0.09
CC1=CCC[C@H]2[C@](C)(CC3=CC(=O)C=CC3=O)[C@@H](C)CC[C@]12C [AVARONE]	63	0.14
